Data as given in patent US20250186470A1, “Compositions and Methods Using Lactulose for Treating Disease” (THE UNIVERSITY OF CHICAGO, priority 2023, published 2025).

Legend:
Bifidobacteria = assay: Fecal shotgun metagenomics of hospitalized liver disease patients stratified by lactulose exposure: Bifidobacteria abundance; format: in vivo, human; conditions: for Regression estimate, association with Bifidobacteria abundance: Table S1, factors lactulose, PPI, stool consistency, antibiotics
B. longum = B. longum growth, pH and SCFA in BHIS with 50 mM lactulose or sucrose; format: cell-based, Bifidobacterium longum
From the text: FIGS. 4A-4D: Lactulose-mediated Bifidobacteria expansion is associated with exclusion of antibiotic-resistant Enterococcus species. (A) Relative abundance of potentially pathogenic taxa Enterococcus and Proteobacteria were plotted based on lactulose exposure (no lactulose, left; lactulose, right) and relative abundance of Bifidobacteria (<10%, blue; ≥10%, red). Each point represents a single sample with the following sample sizes: total n=262; no lactulose, <10%, n=79; no lactulose, ≥10%, n=24; lactulose, <10%, n=87; lactulose, ≥10%, n=72. Median and interquartile range are indicated by the horizontal line and box, respectively. The lower vertical line depicts Q1-1.5*IQR and the upper vertical line depicts Q3+1.5*IQR. Statistical comparisons between individual groups were analyzed using a two-tailed Wilcoxon rank sum test. P-values are adjusted for multiple comparisons using the Benjamini-Hochberg procedure and represented as follows: *, p<0.05; **, p<0.01; ***, p<0.001; ****, p<0.0001. (B) A human-derived B. longum species was grown in BHIS media (blue) or BHIS supplemented with 50 mM lactulose (red) or 50 mM sucrose (green), and growth curves (OD600 over time) are shown. […] This graph is representative of three independent experiments, also done in triplicate, all with consistent results. (C) Schematic of experimental design for B. longum (purple bacilli) and VRE (green cocci) co-culture. B. longum and VRE were grown to steady state and diluted to low density (OD600=0.05) prior to inoculation in either BHIS or BHIS supplemented with 50 mM lactulose. Cultures were inoculated with both bacteria simultaneously (top) or B. longum was given either a 24-hour or 48-hour lead time prior to VRE inoculation (bottom). (D) After 24-hours of co-culture, serial dilutions of three replicates were plated for VRE c.f.u. counts. Each replicate is plotted as an individual point, and the median is represented by the horizontal line. […]
(C and D) Supernatant BA quantified after 24 h of B. longum growth in media containing 10 μg/ml conjugated primary BA ((C) TCA or (D) GCA). n=4 all conditions. […]

[1] = lactulose treated patients, one sample per patient

SMILES: OC[C@H]1O[C@@H](O[C@@H]2[C@@H](CO)OC(O)(CO)[C@H]2O)[C@H](O)[C@@H](O)[C@H]1O (mixture of isomers) [Lactulose, lactulose]
- Regression estimate, association with Bifidobacteria abundance (Bifidobacteria): 0.17
- Regression estimate, association with Bifidobacteria abundance (Bifidobacteria; listed as lactulose): positively associates
- Bifidobacteria abundance, mean (Bifidobacteria; [1]): 22.2%
- Bifidobacteria abundance, range (Bifidobacteria; [1]): 0.0-94.7%
- Fecal samples having ≥10% Bifidobacteria abundance (Bifidobacteria; lactulose within 7 days prior to sample collection, one sample per patient): 45.2%
- Bifidobacteria density (Bifidobacteria; patients without antibiotics in the preceding 7 days, lactulose-treated vs not): significantly increased
- Acetate in B. longum culture (B. longum; 50 mM lactulose, 24 h): acetate production
- Media pH after B. longum growth (B. longum; 50 mM lactulose, 24 h): media acidification
- B. longum culture growth (OD600) (B. longum; BHIS supplemented with 50 mM sugar): augmented
